Experiments:
[1] = test system: Male Wistar rats; test: Prolonged activity on repeated daily p.o. administration (7 or 10 days), paw withdrawal test (Randall and Selitto); format: in vivo, rat; conditions: separate administration p.o.; codeine 175 mg/kg; magnesium lactate micronized 15 or normal 30 mg magnesium ions/kg
Description: (§1) Male Wistar rats (250-300 g) were housed in a room maintained at a temperature of 20±2° C. under 12 h-12 h light-dark cycles. The animals had free access to food and water. Experimental groups consisted of six rats.
(§2) Drugs • Morphine at a dose of 15 mg/kg, codeine at a dose of 175 mg/kg, tramadol at a dose of 125 mg/kg and oxycodone at a dose of 5 mg/kg were dissolved in distilled water; • Dihydrocodeine at a dose of 50 mg/kg was suspended in 1% solution of methylcellulose; • Magnesium lactate (in micronized form)—at a dose of 15 mg magnesium ions/kg (150 mg of magnesium lactate/kg) was suspended in 0.5% solution of methylcellulose; • Magnesium lactate in normal (non-micronized) form—at doses of 15 or 30 mg magnesium ions/kg (150 or 300 mg of magnesium lactate/kg, respectively) was suspended in 0.5% solution of methylcellulose; • Magnesium citrate (in micronized and normal form)—at a dose of 15 mg magnesium ions/kg (112 mg of magnesium citrate/kg) was dissolved in distilled water; • Magnesium hydroaspartate (in micronized and normal form)—at a dose of 15 mg magnesium ions/kg (216 mg of magnesium hydroaspartate/kg) was suspended in 0.5% solution of methylcellulose; • Magnesium chloride (in micronized and normal form)—at a dose of 15 mg magnesium ions/kg (59.5 mg of magnesium chloride/kg) was dissolved in distilled water; • Control animals received a 0.5% solution of methylcellulose, a 1% solution of methylcellulose and distilled water, respectively, according to the same time schedule.
Prolonged activity of the investigated drugs was measured the following day after initial administration, but before the next administration as well as after cessation of administration. Drugs were administered for seven consecutive days (administration of morphine, codeine, dihydrocodeine, oxycodone) or for ten days (administration of tramadol).
(§3) All drugs were administered per os (p.o.); literally—orally. However, in practice, drugs were administered intragastric via a gastric tube.
(§4) Changes in pain thresholds were determined using a mechanical stimuli—the modification of the classic paw withdrawal test described by Randall and Selitto [1957]. In order to produce mechanical stimulation, progressively increasing pressure was applied to the dorsal surface of the rat's paw using an analgesymeter. The instrument used increased the force on the paw at a rate of 32 grams per second. The nociceptive threshold was defined as force in grams, at which the rat attempted to withdraw its right hindpaw and values of pressure were recorded at this very moment. At least two observers controlled the response.
(§5) Nociceptive thresholds (average of two trials) measured for each animal before single administration of investigated drugs (measurement of acute activity) or in day 0 before the first administration (measurement of prolonged activity) constituted the baseline pain threshold—A. Next, measurements of the withdrawal threshold to mechanical stimuli were performed at 5, 15, 30, 60, 90, 120, 180, 240, 300 min after drug administration (measurements of acute activity) or every day before drug administration (measurements of prolonged activity)—B.
(§6) In all experimental sessions (i.e. every day, each drug investigated) values of thresholds obtained (B) were compared to baseline (A).
(§7) Changes in pain threshold were calculated as a percent of baseline value according to the following formula:
(§8) [formula] • C—% of analgesia; A—pressure (in g), baseline pain threshold; B—pressure (in g) in consecutive measurements.
(§9) Percents of analgesia values calculated as above for individual animals were subsequently used to calculate average values in particular experimental groups and for statistical analysis.
The results are expressed as mean values±standard […] of the mean (±S.E.M.). The statistical significance of differences between groups was evaluated by Student's t-test. p≦0.05 was accepted as statistically significant.

[2] = test system: Male Wistar rats; test: Acute activity after single p.o. administration, paw withdrawal test (Randall and Selitto), % of analgesia; format: in vivo, rat; conditions: for analgesic activity on separate administration (codeine study) / analgesic activity / pain perception threshold on separate administration (dihydrocodeine study) / analgesic activity / pain threshold when administered alone (morphine study) / analgesic activity on separate administration (oxycodone study) / analgesic activity on separate administration (tramadol study): single separate administration p.o., magnesium salts 15 mg magnesium ions/kg; for analgesic activity on separate administration (codeine study): codeine 175 mg/kg; for effect on analgesic activity of codeine / activity on codeine analgesia compared to micronized form: 15 mg magnesium ions/kg p.o. with codeine 175 mg/kg p.o.; for effect on morphine analgesia / activity on morphine analgesia in comparison (to micronized magnesium lactate / to micronized form) / enhancement of morphine analgesia lasted up to: 15 mg magnesium ions/kg p.o. with morphine 15 mg/kg p.o.; for analgesic activity / pain perception threshold on separate administration (dihydrocodeine study): dihydrocodeine 50 mg/kg; for analgesic activity / pain threshold when administered alone (morphine study): morphine 15 mg/kg; for analgesic activity on separate administration (oxycodone study): oxycodone 5 mg/kg; for analgesic activity on separate administration (tramadol study): tramadol 125 mg/kg
Description: as §1, §2
Magnesium salts and investigated opioids were administered concomitantly.
The micronized form of magnesium salts used in experiments contains particles of magnesium compounds of size D90<50 μm.
The normal magnesium salts form used in experiments contains particles of sizes commonly available in the market.
Acute activity of investigated drugs was measured in short time periods (from 5 to 300 min) after single administration.
as §3, §4, §5, §6, §7, §8, §9
The results are expressed as mean values±standard deviation of the mean (±S.E.M.).

[3] = single administration, 15 mg magnesium ions/kg p.o. with tramadol 125 mg/kg p.o.
[4] = single administration, 15 mg magnesium ions/kg p.o. with oxycodone 5 mg/kg p.o.
[5] = single administration, 15 mg magnesium ions/kg p.o. with dihydrocodeine 50 mg/kg p.o.

For `COc1ccc2c3c1O[C@H]1[C@@H](O)C=C[C@H]4[C@@H](C2)N(C)CC[C@@]341` [codeine, reference compound], the “analgesic activity on separate administration, 7 days (codeine study)” value [1] was “did not exhibit analgesic activity” and the “analgesic activity on separate administration (codeine study)” value [2] was “did not exhibit analgesic activity”.
For `[Cl-].[Cl-].[Mg+2]` [magnesium chloride, Magnesium chloride], the “enhancement of tramadol analgesia lasted until” value [2, 3] was 90 min, the “time at which enhancement of tramadol analgesia appeared” value [2, 3] was 5 min and the “time of maximum activity on tramadol analgesia” value [2, 3] was 15 min.
`N[C@@H](CC(=O)[O-])C(=O)[O-].N[C@@H](CC(=O)[O-])C(=O)[O-].[H+].[H+].[Mg+2]` [magnesium hydroaspartate, Magnesium hydroaspartate] was tested, and the “effect on oxycodone analgesia” value [2, 4] was “also enhanced oxycodone analgesia”.
`[Cl-].[Cl-].[Mg+2]` [micronized magnesium chloride, Magnesium chloride] was tested, and the “effect on analgesic activity of codeine” value ([2]; single administration) was “significantly enhanced the analgesic activity of codeine”, the “effect on dihydrocodeine analgesia” value [2, 5] was “significantly enhanced dihydrocodeine analgesia” and the “time course of activity on dihydrocodeine analgesia” value [2, 5] was “gradually increased and reached a maximum between min 45 and 90 of the measurements and then became weaker by min 210”. For the same compound, the “effect on morphine analgesia” value ([2]; single administration) was “significantly enhanced morphine analgesia”, the “effect on oxycodone analgesia” value [2, 4] was “significantly enhanced oxycodone analgesia” and the “time at which activity on oxycodone analgesia appeared” value [2, 4] was 5 min. For the same compound, the “time course of activity on oxycodone analgesia” value [2, 4] was “maintained at a constant level up to min 30 of the study, then became weaker in min 45 and disappeared in min 60”, the “effect on antinociceptive activity of tramadol” value (shortened to “effect … of tramadol”) [2, 3] was “increased antynociceptive activity of tramadol” and the “analgesic activity on separate administration (codeine study)” value [2] was “did not exhibit analgesic activity”. For the same compound, the “analgesic activity / pain perception threshold on separate administration (dihydrocodeine study)” value [2] was “did not exhibit analgesic activity”, the “analgesic activity / pain threshold when administered alone (morphine study)” value (from here on “analgesic activity / pain threshold”) [2] was “Neither morphine nor magnesium lactate and chloride in micronized or normal form administered alone showed analgesic activity” and the “analgesic activity on separate administration (oxycodone study)” value (from here on “analgesic activity … (oxycodone study)”) [2] was “showed no analgesic activity”. For the same compound, the “analgesic activity on separate administration (tramadol study)” value (“analgesic activity … (tramadol study)” for short) [2] was “did not exhibit analgesic activity”.
`N[C@@H](CC(=O)O)C(=O)O` [micronized magnesium hydroaspartate, Magnesium hydroaspartate] was tested, and the “effect on analgesic activity of codeine” value ([2]; single administration) was “also enhanced codeine analgesia”, the “activity on dihydrocodeine analgesia in comparison (to micronized form / to magnesium lactate)” value [2, 5] was “lasted a shorter time” and the “effect on dihydrocodeine analgesia” value [2, 5] was “also enhanced dihydrocodeine analgesia”. For the same compound, the “activity on morphine analgesia in comparison (to micronized magnesium lactate / to micronized form)” value ([2]; single administration) was “weaker, although significant”, the “effect on morphine analgesia” value ([2]; single administration) was “also enhanced morphine analgesia” and the “enhancement of morphine analgesia lasted up to” value ([2]; single administration) was 180 min. For the same compound, the “activity on tramadol analgesia in comparison (to micronized form / to magnesium chloride)” value [2, 3] was “weaker throughout the study”, the “effect … of tramadol” value [2, 3] was “also enhanced tramadol analgesia” and the “analgesic activity on separate administration (codeine study)” value [2] was “did not exhibit analgesic activity”. For the same compound, the “analgesic activity / pain perception threshold on separate administration (dihydrocodeine study)” value [2] was “did not exhibit analgesic activity”, the “analgesic activity / pain threshold” value [2] was “did not alter the pain threshold” and the “analgesic activity … (oxycodone study)” value [2] was “showed no analgesic activity”. The “analgesic activity … (tramadol study)” value [2] was “did not exhibit analgesic activity”.
With `[Cl-].[Cl-].[Mg+2]` [normal magnesium chloride, Magnesium chloride] the “activity on dihydrocodeine analgesia in comparison (to micronized form / to magnesium lactate)” value [2, 5] was “somewhat weaker”.
With `N[C@@H](CC(=O)O)C(=O)O` [normal magnesium hydroaspartate, Magnesium hydroaspartate] the “activity on codeine analgesia compared to micronized form” value ([2]; single administration) was “significantly weaker”, the “activity on dihydrocodeine analgesia in comparison (to micronized form / to magnesium lactate)” value [2, 5] was “significantly weaker” and the “activity on morphine analgesia in comparison (to micronized magnesium lactate / to micronized form)” value ([2]; single administration) was “much weaker”. The “activity on oxycodone analgesia compared to micronized form” value [2, 4] was “enhanced oxycodone analgesia significantly less when compared to the micronized form”, the “analgesic activity on separate administration (codeine study)” value [2] was “did not exhibit analgesic activity” and the “analgesic activity / pain perception threshold on separate administration (dihydrocodeine study)” value [2] was “did not exhibit analgesic activity”. For the same compound, the “analgesic activity / pain threshold” value [2] was “did not alter the pain threshold”, the “analgesic activity … (oxycodone study)” value [2] was “showed no analgesic activity” and the “analgesic activity … (tramadol study)” value [2] was “did not exhibit analgesic activity”.
Magnesium citrate was tested, and the “effect on oxycodone analgesia” value [2, 4] was “also enhanced oxycodone analgesia”.
For “Magnesium citrate [micronized magnesium citrate]”, the “effect on analgesic activity of codeine” value ([2]; single administration) was “also enhanced codeine analgesia”, the “activity on dihydrocodeine analgesia in comparison (to micronized form / to magnesium lactate)” value [2, 5] was “lasted a shorter time” and the “effect on dihydrocodeine analgesia” value [2, 5] was “also enhanced dihydrocodeine analgesia”. For the same compound, the “activity on morphine analgesia in comparison (to micronized magnesium lactate / to micronized form)” value ([2]; single administration) was “weaker, although significant”, the “effect on morphine analgesia” value ([2]; single administration) was “also enhanced morphine analgesia” and the “enhancement of morphine analgesia lasted up to” value ([2]; single administration) was 120 min. For the same compound, the “effect … of tramadol” value [2, 3] was “also enhanced tramadol analgesia”, the “analgesic activity on separate administration (codeine study)” value [2] was “did not exhibit analgesic activity” and the “analgesic activity / pain perception threshold on separate administration (dihydrocodeine study)” value [2] was “did not exhibit analgesic activity”. For the same compound, the “analgesic activity / pain threshold” value [2] was “did not alter the pain threshold”, the “analgesic activity … (oxycodone study)” value [2] was “showed no analgesic activity” and the “analgesic activity … (tramadol study)” value [2] was “did not exhibit analgesic activity”.
In the case of “Magnesium citrate [normal magnesium citrate]”, the “activity on codeine analgesia compared to micronized form” value ([2]; single administration) is reported as “significantly weaker”, the “activity on dihydrocodeine analgesia in comparison (to micronized form / to magnesium lactate)” value [2, 5] is reported as “significantly weaker” and the “activity on morphine analgesia in comparison (to micronized magnesium lactate / to micronized form)” value ([2]; single administration) is reported as “much weaker”. The “activity on oxycodone analgesia compared to micronized form” value [2, 4] was “enhanced oxycodone analgesia significantly less when compared to the micronized form”, the “analgesic activity on separate administration (codeine study)” value [2] was “did not exhibit analgesic activity” and the “analgesic activity / pain perception threshold on separate administration (dihydrocodeine study)” value [2] was “did not exhibit analgesic activity”. For the same compound, the “analgesic activity / pain threshold” value [2] was “did not alter the pain threshold”, the “analgesic activity … (oxycodone study)” value [2] was “showed no analgesic activity” and the “analgesic activity … (tramadol study)” value [2] was “did not exhibit analgesic activity”.
